The structures appear in SMILES notation.

The target of assay [1] is Prostaglandin E2 receptor EP2 subtype (Homo sapiens, UniProt P43116). The assay can be described thus: hEP2 cAMP Assay. The protocol: Cells are counted washed and resuspended in assay buffer (AB; HBSS, 20 mM HEPES, 0.2% BSA; 2 mM IBMX). […] Plate is pre-incubated 45 minutes at RT. […] Plate is incubated 30 minutes at RT.
Assay [2] deals with Prostaglandin E2 receptor EP4 subtype (Homo sapiens, UniProt P35408). The assay is described as follows: hEP4 cAMP Assay.
Chain of Prostaglandin E2 receptor EP4 subtype (P35408 whole entry): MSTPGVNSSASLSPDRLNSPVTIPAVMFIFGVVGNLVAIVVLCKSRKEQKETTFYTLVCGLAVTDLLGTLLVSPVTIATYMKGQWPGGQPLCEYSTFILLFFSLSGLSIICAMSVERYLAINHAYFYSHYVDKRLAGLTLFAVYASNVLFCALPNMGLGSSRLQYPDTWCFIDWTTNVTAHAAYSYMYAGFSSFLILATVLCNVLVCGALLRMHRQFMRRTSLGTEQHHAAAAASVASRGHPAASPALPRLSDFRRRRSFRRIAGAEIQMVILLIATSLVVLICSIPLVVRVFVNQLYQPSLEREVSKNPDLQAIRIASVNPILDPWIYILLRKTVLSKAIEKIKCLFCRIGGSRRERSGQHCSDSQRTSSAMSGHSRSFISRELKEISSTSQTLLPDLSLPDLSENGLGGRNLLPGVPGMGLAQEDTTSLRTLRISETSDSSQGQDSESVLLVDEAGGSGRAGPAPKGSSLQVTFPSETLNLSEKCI
Description: Cells are counted washed and resuspended in assay buffer (AB; HBSS, 20 mM HEPES, 0.2% BSA; 2 mM IBMX). […] Plate is pre-incubated 45 minutes at RT. Subsequently, 2.5 microliters of PGE2 (final conc. 6 nM) are transferred into the assay plate. Plate is incubated 30 minutes at RT. […] For each compound concentration the percentage of cAMP compared to DMSO control value as average ±STDEV (each concentration is measured in duplicate) is calculated.

Chain of Prostaglandin E2 receptor EP2 subtype (P43116 whole entry): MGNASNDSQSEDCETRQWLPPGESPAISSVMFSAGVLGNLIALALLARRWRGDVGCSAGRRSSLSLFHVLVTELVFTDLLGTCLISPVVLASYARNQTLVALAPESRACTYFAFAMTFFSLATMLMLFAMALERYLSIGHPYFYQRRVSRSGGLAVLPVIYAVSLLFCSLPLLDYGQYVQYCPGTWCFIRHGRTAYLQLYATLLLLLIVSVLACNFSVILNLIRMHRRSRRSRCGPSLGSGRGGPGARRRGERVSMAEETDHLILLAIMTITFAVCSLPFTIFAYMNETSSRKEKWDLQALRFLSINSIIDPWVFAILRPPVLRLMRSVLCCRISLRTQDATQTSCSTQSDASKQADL

In general, IC50 refers to the concentration needed to halve the response being measured. Regarding `CC(C)Cc1cc(-c2cc(NCCc3ccc4sccc4c3F)ncn2)ccc1C(=O)O` [US11839613, Example 413], the IC50 is 119 nM in assay [1] and 38 nM in assay [2].

`CC(C)Cc1cc(-c2cc(NCCc3cc(F)c4sccc4c3)ncn2)ccc1C(=O)O` [US11839613, Example 414]: the IC50 in assay [1] was determined as 505 nM; in assay [2], 88 nM.

For `COc1c(CCNc2cc(-c3ccc(C(=O)O)c(CC(C)C)c3)ncn2)cc2ccsc2c1F` [US11839613, Example 415], the half-inhibitory concentration (IC50) in assay [1] came out at 106 nM; in assay [2], 57 nM.

Take `CCOc1cc2c(cc1CCNc1cc(-c3ccc(C(=O)O)c(CC(C)C)c3)ncn1)OCCO2` [US11839613, Example 417]: the half-inhibitory concentration (IC50) in assay [1] amounted to 31 nM; in assay [2] it was 240 nM.

With `CCOc1cc(-c2cc(NCCc3ccc4sccc4c3F)ncn2)ccc1OCCC(=O)O` [US11839613, Example 421], the IC50 in assay [1] turned out to be 247 nM; in assay [2], 27 nM.

`CCOc1cc(-c2cc(NCCc3cc(F)c4sccc4c3)ncn2)ccc1OCCC(=O)O` [US11839613, Example 422]: the results for the IC50 in assay [1] and in assay [2] were 492 nM and 18 nM, respectively.

For `CCOc1cc(-c2cc(NCCc3c(OC)cc4ccccc4c3C)ncn2)ccc1OCCC(=O)O` [US11839613, Example 423], the IC50 was 230 nM in assay [1] and 6 nM in assay [2].

For the molecule `CC(C)Oc1cc(-c2cc(NCCc3ccc4sccc4c3F)ncn2)ccc1CC(=O)O` [US11839613, Example 424], the IC50 stood at 782 nM in assay [1] and 89 nM in assay [2].

As for `CCOc1cc2c(cc1CCNc1cc(-c3ccc(CC(=O)O)c(OC(C)C)c3)ncn1)OCCO2` [US11839613, Example 425], the IC50 in assay [1] turned out to be 226 nM; in assay [2], 356 nM.

Consider `CSc1cc(-c2cc(NCCc3ccc4scc(Cl)c4c3)ncn2)ccc1C(=O)O` [US11839613, Example 429], for which the figures for the IC50 in assay [1] and in assay [2] were 66 nM and 38 nM, respectively.

With `O=C(O)c1ccc(-c2cc(NCCc3ccc4scc(Cl)c4c3)ncn2)cc1OC1CCC1` [US11839613, Example 430], the half-inhibitory concentration (IC50) was found to be 185 nM in assay [1] and 40 nM in assay [2].

In the case of `CCOc1cc(-c2cc(NCCc3ccc4scc(Cl)c4c3)ncn2)ccc1CC(=O)O` [US11839613, Example 431], the IC50 in assay [1] amounted to 460 nM; in assay [2], 43 nM.

For `COc1cc2c(c(C)c1CCNc1cc(-c3ccc(C(=O)O)c(OC(C)C)c3)ncn1)OCCO2` [US11839613, Example 432], the IC50 stood at 10 nM in assay [1] and 72 nM in assay [2].

For the molecule `CCOc1cc(-c2cc(NCCc3cc4c(cc3OC(F)F)OCCO4)ncn2)sc1C(=O)O` [US11839613, Example 433], the IC50 in assay [1] came to 57 nM; in assay [2], 13 nM.

Turning to `CCOc1cc(-c2cc(NCCc3c(OC)cc4c(c3F)OCCO4)ncn2)ccc1C(=O)O` [US11839613, Example 435], the results for the IC50 in assay [1] and in assay [2] were 28 nM and 80 nM, respectively.

Regarding `COc1cc(-c2cc(NCCc3ccc4sccc4c3F)ncn2)ccc1OCCC(=O)O` [US11839613, Example 437], the IC50 was found to be 227 nM in assay [1] and 37 nM in assay [2].

`COc1cc(-c2cc(NCCc3cc(F)c4sccc4c3)ncn2)ccc1OCCC(=O)O` [US11839613, Example 438]: the IC50 in assay [1] amounted to 708 nM; in assay [2], 29 nM.

Take `C#Cc1cc2c(cc1CCNc1cc(-c3ccc(C(=O)O)c(OCC)c3)ncn1)OCCO2` [US11839613, Example 439]: the figures for the IC50 in assay [1] and in assay [2] were 33 nM and 139 nM, respectively.

`C#Cc1cc2c(cc1CCNc1cc(-c3ccc(CC(=O)O)c(CCC)c3)ncn1)OCCO2` [US11839613, Example 440]: the IC50 in assay [1] was found to be 25 nM; in assay [2] it was 65 nM.

On to `COc1cc2c(c(C)c1CCNc1cc(-c3ccc(CC(=O)O)c(OC(F)F)c3)ncn1)OCCO2` [US11839613, Example 441], for which the IC50 in assay [1] worked out at 21 nM; in assay [2], 31 nM.

Consider `COc1cc2ccccc2c(C)c1CCNc1cc(-c2ccc(CC(=O)O)c(OC(F)F)c2)ncn1` [US11839613, Example 443], for which the values for the IC50 in assay [1] and in assay [2] were 549 nM and 43 nM, respectively.

On to `CCc1cc(-c2cc(NCCc3c(OC)cc4c(c3C)OCCO4)ncn2)ccc1CC(=O)O` [US11839613, Example 444], for which the IC50 in assay [1] turned out to be 22 nM; in assay [2] it was 80 nM.

With `CCc1cc(-c2cc(NCCc3c(OC)cc4ccccc4c3C)ncn2)ccc1CC(=O)O` [US11839613, Example 445], the IC50 in assay [1] was 525 nM; in assay [2], 104 nM.

For `CCc1cc(-c2cc(NCCc3c(OC)cc4ccccc4c3C)ncn2)ccc1C(=O)O` [US11839613, Example 446], the IC50 in assay [1] came out at 160 nM; in assay [2], 98 nM.

Turning to `COc1cc2ccccc2c(C)c1CCNc1cc(-c2ccc(C(=O)O)c(OC3CC3)c2)ncn1` [US11839613, Example 448], the IC50 was determined as 55 nM in assay [1] and 26 nM in assay [2].

As for `O=C(O)c1ccc(-c2cc(NCCc3cc(F)c4sccc4c3)ncn2)cc1OC1CC1` [US11839613, Example 449], the IC50 in assay [1] worked out at 131 nM; in assay [2] it was 21 nM.

With `COc1cc2c(cc1CCNc1cc(-c3ccc(CC(=O)O)c(OC(F)(F)F)c3)ncn1)OCCO2` [US11839613, Example 450], the concentration for half-maximal inhibition (IC50) is 165 nM in assay [1] and 80 nM in assay [2].

The record behind these values is BindingDB's records for patent US11839613 (Idorsia Pharmaceuticals, 2023).
